What was measured:
[1] = target: T1, FRS2_PTB (Homo sapiens, UniProt Q8WU20); assay: nano differential scanning fluorimetry (nanoDSF); assay type: binding; conditions: 500 μM ligand
T1 construct: FRS2-PTB 11-140aa; 6xHis; made in house; host or cells: E. coli BL21 (DE3)
T1 sequence (Q8WU20 11-140): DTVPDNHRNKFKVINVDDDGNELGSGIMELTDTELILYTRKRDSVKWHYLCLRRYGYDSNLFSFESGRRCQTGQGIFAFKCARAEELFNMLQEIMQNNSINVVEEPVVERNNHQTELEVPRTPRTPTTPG
Experimental: Assay establishment and pilot nanoDSF experiments were performed with a Tycho® system. Each experiment was performed by mixing the protein and ligand of interest at a 1:1 ratio and subsequent incubation for 15–30 min at room temperature. Controls of protein alone and ligand alone in identical buffer compositions as for the complex were measured accordingly. The temperature gradient ranged from 35 to 95 °C, and the heating rate was 30 °C/min. Inflection temperatures TI were calculated from the first derivative of the spectra obtained at the ratio of the signals at 350 nm to those at 330 nm. ΔTI of a complex was calculated as following: ΔTI,complex = TI,complex – TI,protein.
The in-built software version 1.1.5.668 (NanoTemper Technologies, Munich, Germany) and Microsoft Office Excel 365 (Microsoft Corp., Seattle, USA) was used for data analysis. Data was plotted with GraphPad Prism vers. 8.3.0 (GraphPad Software, San Diego, USA).
Purified FRS2_PTB or GB1_FRS2_PTB protein tagged with 6 × Histidine residues and the B1 immunoglobulin binding domain of the streptococcal protein G (GB1) were diluted in the protein buffer (100 mM sodium phosphate, 50 mM NaCl, 0.5 mM EDTA, 50 mM arginine, 1 mM TCEP, pH 7.0) to 30 μM, GB-1 to 40 μM. FGFR_PEP, compounds or paracetamol (PARA) as negative control were dissolved at 1 mM in the protein buffer supplemented with 10% DMSO. Compound and protein were mixed at 1:1 volume ratio yielding a final concentration of 15 μM and 20 μM for FRS2_PTB/GB1_FRS2_PTB and GB1, respectively, as well as 500 μM for FGFR_PEP or compounds. The mixture was incubated for 15 min. Each compound was measured in triplicates. Protein controls were measured in six replicates in the beginning. The quality of the screen was assessed by the Z-factor. nanoDSF validation studies were performed on a Prometheus® system in high sensitivity capillaries. Samples were heated with 1 °C/min from 20 to 95 °C. Each compound was measured in triplicates. GB1-FRS2_PTB and GB1 were diluted in the protein buffer (100 mM sodium phosphate, 50 mM NaCl, 0.5 mM EDTA, 50 mM arginine, 1 mM TCEP, pH 7.0) to 30 μM. Compounds 3.3, 3.4, 3.18 as well as the 3.18 analogues were dissolved in 100% DMSO at 50 or 100 mM and further diluted to 1 mM with a final DMSO-concentration of 100%. FGFR_PEP was dissolved at 1 mM in the protein buffer supplemented with 10% DMSO. Compound and protein were mixed at 1:1 volume ratio yielding final concentrations of 15 μM protein and 500 μM for the compounds. FGFR_PEP was measured against both GB1-FRS2_PTB and GB1, all other compounds only against GB1-FRS2_PTB. The mixture was incubated for 15 min before measurement. The data was analyzed for both the ratio of signals at 330 and 350 nm and at 350 nm alone. […]

[2] = system: RT-112; assay: SIA, collagen I invasion; assay type: cell-based, human
Experimental: (§1) 1000—2500 cells/well in 100 μl were seeded in 96 well Corning® Spheroid microplate (CLS4520, Sigma-Aldrich) or in cell-repellent 96 well microplate (650,790, Greiner Bio-one). SIA and analysis was performed as described before. In brief: After spheroid formation (24 – 72 h after seeding), 70 µl medium was removed and replaced with the collagen mixture (2.5 mg/ml Pure Col Collagen I (Advanced Biomatrix)), DMEM 1x (from 10 × stock, Sigma, D2429) and 0.4% Sodium bicarbonate (Sigma, S8761)), resulting in a final collagen concentration of 1.75 mg/ml. Embedded spheroids were stimulated with bFGF (100 ng/ml if not otherwise stated), HGF (30 ng /ml) or EGF (20 ng/ml) and distance of invaded cells quantified 24 – 48 h after embedding. Compounds and BGJ398 were added in Dimethylsulfoxid (DMSO) and corresponding DMSO concentrations were used in control samples.

[3] = system: DAOY siCTL cells; assay: SIA, bFGF-induced collagen I invasion in control siRNA cells; assay type: cell-based; conditions: Homo sapiens
Experimental: as §1
siFRS2 in DAOY cells: 50,000 cells/well in 2 ml medium were seeded in 6 well plates and incubated at 37 °C, 5% CO2. The following day cells were transfected with 10 nM siRNA (5 nM Silencer Select, 5 nM Stealth RNAi siRNA) using Lipofectamin RNAiMAX Transfection Reagent (13,778,075; Invitrogen) and Opti-MEM® medium (15,392,402; Gibco). After 6 h, the medium was exchanged with fresh complete medium and further processed for the SIA protocol.

[4] = system: Caco-2 cells; assay: CaCo-2 permeability (bi-directional); conditions: Direction A2B
How it was run: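 Caco-2 monolayers (passage 40–60) cultured 20 days on Transwells, equilibrated 40 min in HBSS; compound dosed apically (A-B) or basolaterally (B-A) with 1% v/v DMSO and lucifer yellow integrity marker, in duplicate. LC–MS/MS quantification; Papp from permeation rate, C0 and monolayer area; efflux ratio = Papp(B-A)/Papp(A-B).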

Row | Compound | nanoDSF shift of the inflection point of the melting curve (ΔTm) [1] | Comments: A2B permeation (result in words) [4] | other results
1 | COc1ncc(C(C)NC2CC(C)(C)NC(C)(C)C2)cc1Cl (stereo not shown) [Compound 3.3] | ~1.5 °C | – | –
2 | CC(C)C[C@@H](CO)NCc1cc(O)c2cc(F)ccc2n1 [Compound 3.14] | > 2.0 °C | – | –
3 | O=[N+]([O-])c1c(Cl)cc(O)c2c1C1C=CCC1C(c1ccc(Cl)cc1)N2 (stereo not shown) [Compound 7] | – | – | EC50 ([2]; Homo sapiens, RT-112): 1060 nM; basal and ligand-induced collagen I invasion (result in words) ([2]; RT-112 (FGFR3-TACC3 fusion)): reduced both basal and ligand-induced collagen I invasion; IC50 [3]: 3010 nM
4 | O=[N+]([O-])c1c(Cl)cc(O)c2c1C1C=CCC1C(c1ccc(Cl)cc1Cl)N2 (stereo not shown) [Compound 8] | – | Test compound not detectable in receiver compartments A2B. | –
5 | N#Cc1c(Cl)cc(O)c2c1C1C=CCC1C(c1ccc(Cl)cc1)N2 (stereo not shown) [Compound 14] | – | Test compound not detectable in receiver compartments A2B. | –
